The structures appear in SMILES notation. Read-outs that look alike come from different tables or passages of the source.

The source of these data is patent US20230151049A1, “Compounds Useful in HIV Therapy” (priority 2020, published 2023).

The data set is described as follows: in vivo. The settings on record: for Mean concentration of Example 4B: single IM 20 mg/kg equivalent of EFdA. In outline:
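Three male Wistar Han rats (200-250 g), not fasted, received a single intramuscular gastrocnemius injection of prodrug suspension at 20 mg/kg EFdA equivalent. Tail-vein blood was taken into NaF/Na2EDTA, mixed 1:1 with 100 mM ammonium acetate pH 4, frozen, and analysed by LC-MS/MS.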

The mark [1] stands for this setting: day 35, single IM Example 18A 54 mg/kg.
Setting [2] is: day 42, single IM Example 18A 54 mg/kg.
Where [3] appears, read: day 49, single IM Example 18A 54 mg/kg.
Where [4] appears, read: day 21, single IM Example 16A 20 mg/kg equivalent of EFdA.
Setting [5] is: day 28, single IM Example 16A 20 mg/kg equivalent of EFdA.

On to `C#C[C@]1(COP(=O)(N[C@@H](Cc2ccccc2)C(=O)OCCCCCCCCCCCCCC)Oc2ccccc2)O[C@@H](n2cnc3c(N)nc(F)nc32)C[C@@H]1O` (single isomer, unassigned) [Example 18A], for which the “Mean concentration of EFdA” value is listed as “BQL (BQL = below quantification limit, 0.3 ng/mL for both)” (day 28, single IM Example 18A 54 mg/kg); “BQL (BQL = below quantification limit, 0.3 ng/mL for both)” under setting [1]; “BQL (BQL = below quantification limit, 0.3 ng/mL for both)” under setting [2]; “BQL (BQL = below quantification limit, 0.3 ng/mL for both)” under setting [3]. The “Mean concentration of Example 18A” value is “BQL (BQL = below quantification limit, 0.3 ng/mL for both)” under setting [1]; “BQL (BQL = below quantification limit, 0.3 ng/mL for both)” under setting [2]; “BQL (BQL = below quantification limit, 0.3 ng/mL for both)” under setting [3]. The concentration at 1 day (male, Wistar Han, rat, in vivo, day 1, single IM Example 18A 54 mg/kg, read-out: Mean concentration of Example 18A) was 2.47 ng/mL. For the same molecule, for the setting “male, Wistar Han, rat, in vivo, day 7, single IM Example 18A 54 mg/kg, read-out: Mean concentration of Example 18A”, the concentration at 7 day stood at 12 ng/mL. In addition, the concentration at 14 day (male, Wistar Han, rat, in vivo, day 14, single IM Example 18A 54 mg/kg, read-out: Mean concentration of Example 18A) came out at 1.44 ng/mL. In addition, the concentration at 21 day (male, Wistar Han, rat, in vivo, day 21, single IM Example 18A 54 mg/kg, read-out: Mean concentration of Example 18A) was 0.947 ng/mL. Also, the concentration at 28 day (male, Wistar Han, rat, in vivo, day 28, single IM Example 18A 54 mg/kg, read-out: Mean concentration of Example 18A) was found to be 0.614 ng/mL.
Consider `C#C[C@]1(COP(=O)(N[C@@H](Cc2ccccc2)C(=O)OCCCCCCCCCC)Oc2ccccc2)O[C@@H](n2cnc3c(N)nc(F)nc32)C[C@@H]1O` (single isomer, unassigned) [Example 4B], for which the “Mean concentration of Example 4B” value is, setting by setting: (day 0.0208) “BQL (BQL = below quantification limit, 0.5 ng/mL for Example 4B and 0.5 to 1 ng/mL for EFdA)”; (day 0.0417) “BQL (BQL = below quantification limit, 0.5 ng/mL for Example 4B and 0.5 to 1 ng/mL for EFdA)”; (day 0.125) “BQL (BQL = below quantification limit, 0.5 ng/mL for Example 4B and 0.5 to 1 ng/mL for EFdA)”; (day 0.208) “BQL (BQL = below quantification limit, 0.5 ng/mL for Example 4B and 0.5 to 1 ng/mL for EFdA)”; (day 0.292) “BQL (BQL = below quantification limit, 0.5 ng/mL for Example 4B and 0.5 to 1 ng/mL for EFdA)”; (day 1) “BQL (BQL = below quantification limit, 0.5 ng/mL for Example 4B and 0.5 to 1 ng/mL for EFdA)”. The “Mean concentration of Example 4B” value (day 2) was “BQL (BQL = below quantification limit, 0.5 ng/mL for Example 4B and 0.5 to 1 ng/mL for EFdA)”; the “Mean concentration of Example 4B” value (day 3) was “BQL (BQL = below quantification limit, 0.5 ng/mL for Example 4B and 0.5 to 1 ng/mL for EFdA)”; the “Mean concentration of Example 4B” value (day 4) was “BQL (BQL = below quantification limit, 0.5 ng/mL for Example 4B and 0.5 to 1 ng/mL for EFdA)”; the “Mean concentration of Example 4B” value (day 5) was “BQL (BQL = below quantification limit, 0.5 ng/mL for Example 4B and 0.5 to 1 ng/mL for EFdA)”; the “Mean concentration of Example 4B” value (day 7) was “BQL (BQL = below quantification limit, 0.5 ng/mL for Example 4B and 0.5 to 1 ng/mL for EFdA)”. The “Mean concentration of EFdA” value is “BQL (BQL = below quantification limit, 0.5 ng/mL for Example 4B and 0.5 to 1 ng/mL for EFdA)” (day 14, single IM Example 4B 20 mg/kg equivalent of EFdA); “BQL (BQL = below quantification limit, 0.5 ng/mL for Example 4B and 0.5 to 1 ng/mL for EFdA)” (day 17, single IM Example 4B 20 mg/kg equivalent of EFdA); “BQL (BQL = below quantification limit, 0.5 ng/mL for Example 4B and 0.5 to 1 ng/mL for EFdA)” (day 21, single IM Example 4B 20 mg/kg equivalent of EFdA); “BQL (BQL = below quantification limit, 0.5 ng/mL for Example 4B and 0.5 to 1 ng/mL for EFdA)” (day 24, single IM Example 4B 20 mg/kg equivalent of EFdA); “BQL (BQL = below quantification limit, 0.5 ng/mL for Example 4B and 0.5 to 1 ng/mL for EFdA)” (day 28, single IM Example 4B 20 mg/kg equivalent of EFdA); “BQL (BQL = below quantification limit, 0.5 ng/mL for Example 4B and 0.5 to 1 ng/mL for EFdA)” (day 31, single IM Example 4B 20 mg/kg equivalent of EFdA).
In the case of `C#C[C@]1(COP(=O)(N[C@@H](C)C(=O)OCCCCCCCCCCCCCCCCCCCCCC)Oc2ccccc2)O[C@@H](n2cnc3c(N)nc(F)nc32)C[C@@H]1O` (single isomer, unassigned) [Example 16A], the “Mean concentration of EFdA” value by setting is: (day 1, single IM Example 16A 20 mg/kg equivalent of EFdA) “BQL (BQL = below quantification limit, 0.3 ng/mL for both)”; under setting [4], “BQL (BQL = below quantification limit, 0.3 ng/mL for both)”; under setting [5], “BQL (BQL = below quantification limit, 0.3 ng/mL for both)”. Also, the “Mean concentration of Example 16A” value is, setting by setting: (day 14, single IM Example 16A 20 mg/kg equivalent of EFdA) “BQL (BQL = below quantification limit, 0.3 ng/mL for both)”; under setting [4], “BQL (BQL = below quantification limit, 0.3 ng/mL for both)”; under setting [5], “BQL (BQL = below quantification limit, 0.3 ng/mL for both)”. Also, the concentration at 1 day (male, Wistar Han, rat, in vivo, day 1, single IM Example 16A 20 mg/kg equivalent of EFdA, read-out: Mean concentration of Example 16A) is 3.05 ng/mL. The concentration at 7 day (male, Wistar Han, rat, in vivo, day 7, single IM Example 16A 20 mg/kg equivalent of EFdA, read-out: Mean concentration of Example 16A) came out at 1.03 ng/mL.
